Laboratory results reported in patent US20240277637A1, “CAPSAICIN DERIVATIVES IN THE TREATMENT OF IDIOPATHIC PULMONARY FIBROSIS” (aXichem AB, priority 2021, published 2024).

Legend:
Format in all cases: cell-based
Settings in all cases: 10 ng/ml PDGF-AB, 14 days
[1] = tested on: human bronchial epithelial cells; test: Clonogenic cell survival assay, bronchial epithelial cells with PDGF-AB (Example 2)
Protocol: Primary isolated human bronchial epithelial cells (NHBE) (Normal, Human (ATCC® BEAS-2B™)) were cultured up to passage 6. […].
A clonogenic cell survival assay determines the ability of a cell to proliferate indefinitely. The effects of phenylcapsaicin on clonogenic survival of bronchial epithelial cells was investigated by plating the cells with increasing numbers (10^2 to 5×10^4) in 25 cm^2 flasks. SU9518, a known inhibitor for PDGF which has shown the ability to reduce radiation-induced fibroblast and endothelial cell activation, was used as the positive control. The cells were incubated with 0-10 μM of phenylcapsaicin and SU9518 separately in the presence of 10 ng/ml PDGF-AB. The flasks were returned to the incubator for 14 days, after which they were stained with crystal violet. The colonies were counted, and the surviving percentage was determined for clonogenic survival after correcting for plating efficiency.

[2] = tested on: human bronchial epithelial cells; test: Clonogenic cell survival assay, bronchial epithelial cells with PDGF-AB (Example 3)
Protocol: (§1) Primary isolated human bronchial epithelial cells (NHBE) were used in this assay sourced from the American Tissue Culture Collection (Normal, Human (ATCC® BEAS-2B™)) and were cultured up to passage 6. […].
A clonogenic cell survival assay determines the ability of a cell to proliferate indefinitely. Cells were plated with increasing numbers (102 to 5×10^4) in 25 cm^2 flasks. SU9518, SU9518, a known inhibitor PDGF that has shown the ability to reduce radiation-induced fibroblast and endothelial cell activation, and phenylcapsaicin were used as positive controls. The cells were incubated with 0-10 μM (3% DMSO aqueous) of phenylcapsaicin, SU9518, and compounds 1 and 3-7 separately in the presence of 10 ng/ml PDGF-AB (Sigma Aldrich). The flasks were returned to the incubator for 14 days, after which they were stained with crystal violet (Sigma Aldrich). The colonies were counted and the surviving percentage was determined for clonogenic survival after correcting for plating efficiency.

[3] = tested on: human corneal epithelial cells; test: Clonogenic cell survival assay, corneal epithelial cells with PDGF-AB (Example 1)
Protocol: Primary isolated human corneal epithelial cells; Normal, Human cells (ATCC® PCS-700-010™) were maintained in culture at 37° C. with 5% CO2 and 95% humidity in serum reduced (5% fetal calf serum) modified promocell media (MPM) supplemented with 4 ng/ml fibronectin (FN), 2 ng/ml human recombinant vascular endothelial growth factor (VEGF) and 4 ng/ml basic fibroblast growth factor (bFGF).
A clonogenic cell survival assay determines the ability of a cell to proliferate indefinitely. The effects of phenylcapsaicin (2) on clonogenic survival of corneal epithelial cells was investigated by plating the cells with increasing numbers (102 to 5×104) in 25 cm^2 flasks. SU9518, a known inhibitor PDGF that has shown the ability to reduce radiation-induced fibroblast and endothelial cell activation, was used as the positive control. The cells were incubated with 0-10 μM of phenylcapsaicin and SU9518 separately in the presence of 10 ng/ml PDGF-AB. The flasks were returned to the incubator for 14 days, after which they were stained with crystal violet. The colonies were counted, and the surviving

[4] = tested on: human bronchial epithelial cells; test: Clonogenic cell survival assay, bronchial epithelial cells with PDGF-AB (Example 4)
Protocol: as §1
The effects of Phenylcapsaicin (2) on clonogenic survival of bronchial epithelial cells, by plating the cells with increasing numbers (102 to 5×104) in 25 cm^2 flasks were investigated. SU9518* and Phenylcapsaicin were used as positive controls. The cells were incubated with 0-10 μM (3% DMSO aqueous) of Phenylcapsaicin, SU9518, and compounds 8-12 separately in the presence of 10 ng/ml PDGF-AB (Sigma Aldrich). The flasks were returned to the incubator for 14 days, after which they were stained with crystal violet (Sigma Aldrich). The colonies were counted and the surviving percentage was determined for clonogenic survival after correcting for plating efficiency. The synthetic analogs were all calculated at 100% purity for molar concentrations.

Compound: Cc1[nH]c(/C=C2\C(=O)Nc3ccc(Br)cc32)c(C)c1CCC(=O)O [SU9518, reference compound]
- effect on clonogenic survival ([1]; 0-10 μM): dose dependent reduction in cell survival
- surviving fraction of epithelial cells ([1]; 5 μM): 33%
- Clonogenic Survival Assay (percent) ([2]; 0.10 μM): 80%
- Clonogenic Survival Assay (percent) ([2]; 0.50 μM): 65%
- Clonogenic Survival Assay (percent) ([2]; 1.00 μM): 59%
- Clonogenic Survival Assay (percent) ([2]; 2.00 μM): 41%
- Clonogenic Survival Assay (percent) ([2]; 5.00 μM): 33%
- Clonogenic Survival Assay (percent) ([2]; 10.00 μM): 22%
- effect on clonogenic survival ([3]; 0-10 μM): dose dependent reduction in cell survival
- surviving fraction of epithelial cells ([3]; 5 μM): 30%
- Clonogenic Survival Assay (percent) ([4]; 0.10 uM): 80%
- Clonogenic Survival Assay (percent) ([4]; 0.50 uM): 65%
- Clonogenic Survival Assay (percent) ([4]; 1.00 uM): 59%
- Clonogenic Survival Assay (percent) ([4]; 2.00 uM): 41%
- Clonogenic Survival Assay (percent) ([4]; 5.00 uM): 33%
- Clonogenic Survival Assay (percent) ([4]; 10.00 uM): 22%
